Measurements as given in patent US8044079B2, “Substituted oxindole derivatives, medicaments containing said derivatives and use thereof” (Abbott GmbH & Co. KG, priority 2005, dated 2011).

Target: T1, human vasopressin V1b receptor (Homo sapiens, UniProt P47901)
T1 construct: expressed in transfected cells; host or cells: CHO-K1 (cell line hV1b_3H2_CHO), membrane preparation
T1 sequence (P47901 1-424): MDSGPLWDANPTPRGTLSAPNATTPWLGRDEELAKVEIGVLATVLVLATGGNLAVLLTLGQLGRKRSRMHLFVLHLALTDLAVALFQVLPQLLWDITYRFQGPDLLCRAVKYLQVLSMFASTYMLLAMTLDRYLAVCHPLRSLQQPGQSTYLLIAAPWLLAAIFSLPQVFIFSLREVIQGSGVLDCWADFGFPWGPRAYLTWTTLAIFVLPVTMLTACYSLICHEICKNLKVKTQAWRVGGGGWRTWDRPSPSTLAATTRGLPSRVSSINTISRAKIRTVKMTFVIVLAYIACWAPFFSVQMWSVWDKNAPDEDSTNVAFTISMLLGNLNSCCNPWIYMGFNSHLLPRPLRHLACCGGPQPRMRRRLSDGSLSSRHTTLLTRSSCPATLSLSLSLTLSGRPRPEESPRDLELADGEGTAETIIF
Experiment: Vasopressin V1b receptor binding test
Conditions: membranes of CHO-K1 cells with human V1b receptor, displacement of 1.5 nM 3H-AVP; for compounds with more than one stereogenic center the diastereomer with greater affinity
In short: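 Radioligand displacement on membranes carrying human V1b receptor in 50 mM tris, 10 mM MgCl2, 0.1% BSA, pH 7.4, 2% DMSO final; 60 min at room temperature, nonspecific binding with 1 μM AVP. Free ligand removed by filtration, bound counted by liquid scintillation, Ki from nonlinear regression of triplicates.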

Row | SMILES | Ki
1 | COc1ccc(S(=O)(=O)N2C(=O)C(c3cc(CNCCO)ccc3OC)(N3CCC[C@H]3c3ncco3)c3ccc(Cl)cc32)cc1 (stereo partly drawn) [Example 93, 6-Chloro-3-{5-[(2-hydroxyethylamino)methyl]-2-methoxyphenyl}-1-(4-methoxybenzenesulfonyl)-3-((S)-2-oxazol-2-yl-pyrrolidin-1-yl)-1,3-dihydroindol-2-one] | 100 to 1000 nM
2 | COc1ccc(S(=O)(=O)N2C(=O)C(c3cc(CN4CCN(C(C)C)CC4)ccc3OC)(N3CCC[C@H]3c3ncco3)c3cc(C#N)ccc32)cc1 (stereo partly drawn) [Example 94, 5-Cyano-3-[5-(4-isopropylpiperazin-1-ylmethyl)-2-methoxyphenyl]-1-(4-methoxybenzenesulfonyl)-3-((S)-2-oxazol-2-yl-pyrrolidin-1-yl)-1,3-dihydroindol-2-one] | 10 to 100 nM
3 | COc1ccc(S(=O)(=O)N2C(=O)C(c3cc(CN4CCN(C(C)=O)CC4)ccc3OC)(N3CCC[C@H]3c3ncco3)c3cc(C#N)ccc32)cc1 (stereo partly drawn) [Example 95, 5-Cyano-3-[5-(4-acetylpiperazin-1-ylmethyl)-2-methoxyphenyl]-1-(4-methoxybenzenesulfonyl)-3-((S)-2-oxazol-2-yl-pyrrolidin-1-yl)-1,3-dihydroindol-2-one] | 10 to 100 nM
4 | COc1ccc(S(=O)(=O)N2C(=O)C(c3cc(CN4CCOCC4)ccc3OC)(N3CCC[C@H]3c3ncco3)c3cc(Cl)ccc32)cc1 (stereo partly drawn) [Example 96, 5-Chloro-1-(4-methoxybenzenesulfonyl)-3-(2-methoxy-5-(morpholin-4-ylmethyl)phenyl)-3-((S)-2-oxazol-2-yl-pyrrolidin-1-yl)-1,3-dihydroindol-2-one] | 10 to 100 nM
5 | CNCc1ccc(C2(N3CCC[C@H]3c3ncco3)C(=O)N(S(=O)(=O)c3ccc(OC)cc3)c3ccc(C#N)cc32)c(OC)c1 (stereo partly drawn) [Example 97, 5-Cyano-1-(4-methoxybenzenesulfonyl)-3-(2-methoxy-4-methylaminomethylphenyl)-3-((S)-2-oxazol-2-yl-pyrrolidin-1-yl)-1,3-dihydroindol-2-one] | 10 to 100 nM
6 | CCNCc1ccc(C2(N3CCC[C@H]3c3ncco3)C(=O)N(S(=O)(=O)c3ccc(OC)cc3)c3ccc(C#N)cc32)c(OC)c1 (stereo partly drawn) [Example 98, 5-Cyano-3-(4-ethylaminomethyl-2-methoxyphenyl)-1-(4-methoxybenzenesulfonyl)-3-((S)-2-oxazol-2-yl-pyrrolidin-1-yl)-1,3-dihydroindol-2-one] | 10 to 100 nM
7 | CCCNCc1ccc(C2(N3CCC[C@H]3c3ncco3)C(=O)N(S(=O)(=O)c3ccc(OC)cc3)c3ccc(C#N)cc32)c(OC)c1 (stereo partly drawn) [Example 99, 5-Cyano-1-(4-methoxybenzenesulfonyl)-3-(2-methoxy-4-(propylaminomethyl)phenyl)-3-((S)-2-oxazol-2-yl-pyrrolidin-1-yl)-1,3-dihydroindol-2-one] | 10 to 100 nM
8 | COc1ccc(S(=O)(=O)N2C(=O)C(c3ccc(CNC(C)C)cc3OC)(N3CCC[C@H]3c3ncco3)c3cc(C#N)ccc32)cc1 (stereo partly drawn) [Example 100, 5-Cyano-3-[4-(isopropylaminomethyl)-2-methoxyphenyl]-1-(4-methoxybenzenesulfonyl)-3-((S)-2-oxazol-2-yl-pyrrolidin-1-yl)-1,3-dihydroindol-2-one] | 10 to 100 nM
9 | COc1ccc(S(=O)(=O)N2C(=O)C(c3ccc(CN4CCCC4)cc3OC)(N3CCC[C@H]3c3ncco3)c3cc(C#N)ccc32)cc1 (stereo partly drawn) [Example 101, 5-Cyano-1-(4-methoxybenzenesulfonyl)-3-(2-methoxy-4-(pyrrolidin-1-ylmethyl)phenyl)-3-((S)-2-oxazol-2-yl-pyrrolidin-1-yl)-1,3-dihydroindol-2-one] | 10 to 100 nM
10 | COc1ccc(S(=O)(=O)N2C(=O)C(c3cc(CN4CCN(C(C)C)CC4)ccc3OC)(N3CCC[C@H]3c3ncco3)c3cc(Cl)c(Cl)cc32)cc1 (stereo partly drawn) [Example 104, 5,6-Dichloro-3-[5-(4-isopropylpiperazin-1-ylmethyl)-2-methoxyphenyl]-1-(4-methoxybenzenesulfonyl)-3-((S)-2-oxazol-2-yl-pyrrolidin-1-yl)-1,3-dihydroindol-2-one] | 10 to 100 nM
11 | COc1ccc(S(=O)(=O)N2C(=O)C(c3cc(CNC(C)(C)C)ccc3OC)(N3CCC[C@H]3c3ncco3)c3cc(Cl)c(Cl)cc32)cc1 (stereo partly drawn) [Example 106, 5,6-Dichloro-3-[5-(tert-butylaminomethyl)-2-methoxyphenyl]-1-(4-methoxybenzenesulfonyl)-3-((S)-2-oxazol-2-yl-pyrrolidin-1-yl)-1,3-dihydroindol-2-one] | 10 to 100 nM
12 | COc1ccc(S(=O)(=O)N2C(=O)C(c3cc(CN4CCN(CCO)CC4)ccc3OC)(N3CCC[C@H]3c3ncco3)c3cc(Cl)c(Cl)cc32)cc1 (stereo partly drawn) [Example 107, 5,6-Dichloro-3-{5-[4-(2-hydroxyethyl)piperazin-1-ylmethyl]-2-methoxyphenyl}-1-(4-methoxybenzenesulfonyl)-3-((S)-2-oxazol-2-yl-pyrrolidin-1-yl)-1,3-dihydroindol-2-one] | 10 to 100 nM
13 | COc1ccc(S(=O)(=O)N2C(=O)C(NCc3ncco3)(c3cc(CN(C)C)ccc3OC)c3cc(Cl)ccc32)cc1 (centres unmarked) [Example 108, 5-Chloro-3-(5-dimethylaminomethyl-2-methoxyphenyl)-1-(4-methoxybenzenesulfonyl)-3-[(oxazol-2-ylmethyl)amino]-1,3-dihydroindol-2-one] | 10 to 100 nM
14 | COc1ccc(S(=O)(=O)N2C(=O)C(NCc3ncco3)(c3cc(CN4CCCC4)ccc3OC)c3cc(Cl)ccc32)cc1 (centres unmarked) [Example 109, 5-Chloro-1-(4-methoxybenzenesulfonyl)-3-(2-methoxy-5-pyrrolidin-1-ylmethylphenyl)-3-[(oxazol-2-ylmethyl)amino]-1,3-dihydroindol-2-one] | 10 to 100 nM
15 | COc1ccc(S(=O)(=O)N2C(=O)C(NCc3ncco3)(c3cc(CN4CCN(C)CC4)ccc3OC)c3cc(Cl)ccc32)cc1 (centres unmarked) [Example 110, 5-Chloro-1-(4-methoxybenzenesulfonyl)-3-[2-methoxy-5-(4-methylpiperazin-1-ylmethyl)phenyl]-3-[(oxazol-2-ylmethyl)amino]-1,3-dihydroindol-2-one] | 10 to 100 nM
16 | COc1ccc(S(=O)(=O)N2C(=O)C(NCc3ncco3)(c3cc(CNCCO)ccc3OC)c3cc(Cl)ccc32)cc1 (centres unmarked) [Example 111, 5-Chloro-3-{5-[(2-hydroxyethylamino)methyl]-2-methoxyphenyl}-1-(4-methoxybenzenesulfonyl)-3-[(oxazol-2-ylmethyl)amino]-1,3-dihydroindol-2-one] | 10 to 100 nM

The next lines start with the values.

Row | Ki | SMILES
17 | < 10 nM | COc1ccc(S(=O)(=O)N2C(=O)C(c3cc(CN4CCCN(C)CC4)ccc3OC)(N3CCC[C@H]3c3ncco3)c3cc(Cl)ccc32)cc1 (stereo partly drawn) [Example 91, 5-Chloro-1-(4-methoxybenzenesulfonyl)-3-[2-methoxy-5-(4-methyl-[1,4]diazepan-1-ylmethyl)phenyl]-3-((S)-2-oxazol-2-yl-pyrrolidin-1-yl)-1,3-dihydroindol-2-one]
18 | < 10 nM | COc1ccc(S(=O)(=O)N2C(=O)C(c3cc(CN4CCN(CCO)CC4)ccc3OC)(N3CCC[C@H]3c3ncco3)c3cc(Cl)ccc32)cc1 (stereo partly drawn) [Example 92, 5-Chloro-3-{5-[4-(2-hydroxyethyl)piperazin-1-ylmethyl]-2-methoxyphenyl}-1-(4-methoxybenzenesulfonyl)-3-((S)-2-oxazol-2-yl-pyrrolidin-1-yl)-1,3-dihydroindol-2-one]
19 | < 10 nM | COc1ccc(S(=O)(=O)N2C(=O)C(c3cc(CN(C)C)ccc3OC)(N3C[C@H](O)C[C@H]3c3ncco3)c3cc(Cl)ccc32)cc1 (stereo partly drawn) [Example 102, 5-Chloro-3-(5-dimethylaminomethyl-2-methoxyphenyl)-3-((2S,4R)-4-hydroxy-2-oxazol-2-yl-pyrrolidin-1-yl)-1-(4-methoxybenzenesulfonyl)-1,3-dihydroindol-2-one]
20 | < 10 nM | COc1ccc(S(=O)(=O)N2C(=O)C(c3cc(CN4CCN(C)CC4)ccc3OC)(N3C[C@H](O)C[C@H]3c3ncco3)c3cc(Cl)ccc32)cc1 (stereo partly drawn) [Example 103, 5-Chloro-3-((2S,4R)-4-hydroxy-2-oxazol-2-yl-pyrrolidin-1-yl)-1-(4-methoxybenzenesulfonyl)-3-[2-methoxy-5-(4-methylpiperazin-1-ylmethyl)phenyl]-1,3-dihydroindol-2-one]
21 | < 10 nM | CNCc1ccc(OC)c(C2(N3C[C@H](O)C[C@H]3c3ncco3)C(=O)N(S(=O)(=O)c3ccc(OC)cc3)c3ccc(Cl)cc32)c1 (stereo partly drawn) [Example 105, 5-Chloro-3-((2S,4R)-4-hydroxy-2-oxazol-2-yl-pyrrolidin-1-yl)-1-(4-methoxybenzenesulfonyl)-3-(2-methoxy-5-(methylaminomethyl)phenyl)-1,3-dihydroindol-2-one]
22 | < 10 nM | COc1ccc(S(=O)(=O)N2C(=O)C(c3cc(CN4CCNCC4)ccc3OC)(N3C[C@H](O)C[C@H]3c3ncco3)c3cc(Cl)ccc32)cc1 (stereo partly drawn) [Example 113, 5-Chloro-3-((2S,4R)-4-hydroxy-2-oxazol-2-yl-pyrrolidin-1-yl)-1-(4-methoxybenzenesulfonyl)-3-(2-methoxy-5-(piperazin-1-ylmethyl)phenyl)-1,3-dihydroindol-2-one]
23 | < 10 nM | COc1ccc(S(=O)(=O)N2C(=O)C(c3cc(CN4CCCC4)ccc3OC)(N3C[C@H](O)C[C@H]3c3ncco3)c3cc(Cl)ccc32)cc1 (stereo partly drawn) [Example 114, 5-Chloro-3-((2S,4R)-4-hydroxy-2-oxazol-2-yl-pyrrolidin-1-yl)-1-(4-methoxybenzenesulfonyl)-3-(2-methoxy-5-(pyrrolidin-1-ylmethyl)phenyl)-1,3-dihydroindol-2-one]
